# Bridge positions count the residues as written; N and C are the ends. Square brackets hold non-standard residues; d marks the D form. Peptide text beside a SMILES is read from it. Phe(4-COOH) = N[C@@H](Cc1ccc(C(=O)O)cc1)C(=O)O; R8 = C=CCCCCCC[C@@](C)(N)C(=O)O; Cba = N[C@@H](CC1CCC1)C(=O)O; hLeu = CC(C)CC[C@H](N)C(=O)O; S5 = C=CCCC[C@](C)(N)C(=O)O; Aib = CC(C)(N)C(=O)O
# Key:
# SJSA-1 cells = experiment: Cell lysis by peptidomimetic macrocycles (LDH release); format: cell-based; settings: SJSA-1, 1 h
# Method in brief: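 SJSA-1 cells plated the day before, switched to RPMI with 1% FBS, then exposed 1 h at 37 °C to macrocycle at final 50 μM to 6.25 μM in 0.5% DMSO. LDH released into the supernatant was measured by kit. Controls: 0.5% DMSO (non-lytic), 10 μM melittin and 1% Triton X-100 (lytic).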
# RKO = experiment: Cell viability assay (MTT), RKO; settings: read-out: RKO EC50 (72 h)
# Caspase 3 = Caspase 3 detection assay in SJSA1 cells; format: cell-based; settings: SJSA1, 48 h, Caspase 3 activation over DMSO-treated cells
SMILES,6.25 μM % Lysed cells (1 h LDH) (SJSA-1 cells) [%],25 μM % Lysed cells (1 h LDH) (SJSA-1 cells) [%],50 μM % Lysed cells (1 h LDH) (SJSA-1 cells) [%],EC50 (RKO) [µM],caspase 0.3 μM (Caspase 3),caspase 3 μM (Caspase 3),caspase 10 μM (Caspase 3),caspase 30 μM (Caspase 3),caspase 1 μM (Caspase 3; 1 μM)
"CC[C@H](C)[C@H](NC(=O)[C@H](C)NC(=O)[C@H](C)NC(=O)[C@]1(C)CCCC=CCCCCCC[C@@](C)(NC(=O)[C@H](Cc2ccccc2)NC(=O)[C@@H](NC(=O)[C@H](CC(C)C)NC(C)=O)[C@@H](C)O)C(=O)N[C@@H](C)C(=O)N[C@@H](Cc2ccc(O)cc2)C(=O)N[C@@H](Cc2c[nH]c3ccccc23)C(=O)N[C@@H](C)C(=O)N[C@@H](CCC(N)=O)C(=O)N[C@@H](CC(C)C)C(=O)N1)C(=O)N[C@H](CC(C)C)C(N)=O (single isomer, unassigned) [compound 81]",1,0,0,5 to 15,1,1,6,21,–
CC(=O)N[C@@H](CC(C)C)C(=O)N[C@H](C(=O)N[C@@H](Cc1ccccc1)C(=O)N[C@]1(C)CCCCCC/C=C\CCC[C@@](C)(C(=O)N[C@@H](CO)C(=O)N[C@@H](C)C(=O)N[C@@H](C)C(N)=O)NC(=O)[C@H](CCC(C)C)NC(=O)[C@H](CCC(N)=O)NC(=O)[C@H](C)NC(=O)[C@H](Cc2c[nH]c3ccccc23)NC(=O)[C@H](Cc2ccc(O)cc2)NC(=O)[C@H](C)NC1=O)[C@@H](C)O [compound 114] (Ac-LTF[R8]AYWAQ[hLeu][S5]SAA-NH2; staple (Z) 4-11),3,4,9,5 to 15,1,6,28,34,–
"CC(=O)N[C@@H](CC(C)C)C(=O)N[C@H](C(=O)N[C@@H](Cc1ccc(F)c(F)c1)C(=O)N[C@]1(C)CCCCCCC=CCCC[C@@](C)(C(=O)N[C@@H](CO)C(=O)N[C@@H](C)C(=O)N[C@@H](C)C(N)=O)NC(=O)[C@H](CC(C)C)NC(=O)[C@H](CCC(N)=O)NC(=O)[C@H](C)NC(=O)[C@H](Cc2c[nH]c3ccccc23)NC(=O)[C@H](Cc2ccc(O)cc2)NC(=O)[C@H](CCC(=O)O)NC1=O)[C@@H](C)O (single isomer, unassigned) [compound 158]",0,−2,–,> 30,1,1.67,5,16.33,–
CC(=O)N[C@@H](CC(C)C)C(=O)N[C@H](C(=O)N[C@@H](Cc1ccccc1)C(=O)N[C@]1(C)CCCCCCC=CCCC[C@@](C)(C(=O)N[C@@H](CO)C(=O)N[C@@H](C)C(=O)NC(C)(C)C(N)=O)NC(=O)[C@H](CC(C)C)NC(=O)[C@H](CCC(N)=O)NC(=O)[C@H](C)NC(=O)[C@H](Cc2c[nH]c3ccccc23)NC(=O)[C@H](Cc2ccc(O)cc2)NC(=O)[C@H](C)NC1=O)[C@@H](C)O [compound 10] (Ac-LTF[R8]AYWAQL[S5]SA[Aib]-NH2; staple 4-11),–,–,–,5 to 15,1,1,17,32,–
"CC(=O)N[C@@H](CC(C)C)C(=O)N[C@H](C(=O)N[C@@H](Cc1ccccc1)C(=O)N[C@]1(C)CCCCCCC=CCCC[C@@](C)(C(=O)N[C@@H](CO)C(=O)N[C@@H](C)C(=O)N[C@@H](C)C(N)=O)NC(=O)[C@H](C2CCCC2)NC(=O)[C@H](CCC(N)=O)NC(=O)[C@H](C)NC(=O)[C@H](Cc2c[nH]c3ccccc23)NC(=O)[C@H](Cc2ccc(O)cc2)NC(=O)[C@H](CCC(=O)O)NC1=O)[C@@H](C)O (single isomer, unassigned) [compound 150]",−1,0,2,15 to 30,–,–,–,–,–
CC[C@H](C)[C@H](NC(=O)[C@H](C)NC(=O)[C@H](C)NC(=O)[C@]1(C)CCC/C=C/CCCCCC[C@@](C)(NC(=O)[C@H](Cc2ccccc2)NC(=O)[C@@H](NC(=O)[C@H](CC(C)C)NC(C)=O)[C@@H](C)O)C(=O)N[C@@H](CCC(=O)O)C(=O)N[C@@H](Cc2ccc(C(=O)O)cc2)C(=O)N[C@@H](Cc2c[nH]c3ccccc23)C(=O)N[C@@H](C)C(=O)N[C@@H](CCC(N)=O)C(=O)N[C@@H](CC2CCC2)C(=O)N1)C(=O)N[C@H](C)C(N)=O [compound 249] (Ac-LTF[R8]E[Phe(4-COOH)]WAQ[Cba][S5]AAI[dA]-NH2; staple (E) 4-11),0,0,0,< 5,2,5,11,23,–
"CC(=O)N[C@@H](CC(C)C)C(=O)N[C@H](C(=O)N[C@@H](Cc1ccccc1)C(=O)N[C@]1(C)CCCCCCC=CCCC[C@@](C)(C(=O)N[C@@H](C)C(=O)N[C@@H](C)C(=O)N[C@@H](Cc2ccccc2)C(=O)N[C@H](C)C(N)=O)NC(=O)[C@H](CC(C)C)NC(=O)[C@H](CCC(N)=O)NC(=O)[C@H](C)NC(=O)[C@H](Cc2c[nH]c3ccccc23)NC(=O)[C@H](Cc2ccc(O)cc2)NC(=O)[C@H](CCC(=O)O)NC1=O)[C@@H](C)O (single isomer, unassigned) [compound 219]",0,−1,2,5 to 15,1,5,17,34,–
CC(=O)N[C@@H](CC(C)C)C(=O)N[C@H](C(=O)N[C@@H](Cc1ccccc1)C(=O)N[C@]1(C)CCCCCCC=CCCC[C@@](C)(C(=O)N[C@@H](C)C(=O)N[C@@H](Cc2c[nH]cn2)C(=O)N[C@@H](Cc2ccccc2)C(=O)N[C@@H](C)C(N)=O)NC(=O)[C@H](CC(C)C)NC(=O)[C@H](CCC(N)=O)NC(=O)[C@H](C)NC(=O)[C@H](Cc2c[nH]c3ccccc23)NC(=O)[C@H](Cc2ccc(O)cc2)NC(=O)[C@H](C)NC1=O)[C@@H](C)O [compound 50] (Ac-LTF[R8]AYWAQL[S5]AHFA-NH2; staple 4-11),–,–,–,< 5,–,8,29,29,–
CC(=O)N[C@@H](CCC(=O)O)C(=O)N[C@H](C(=O)N[C@@H](Cc1ccccc1)C(=O)N[C@]1(C)CCCCCCC=CCCC[C@@](C)(C(=O)N[C@@H](CO)C(=O)N[C@@H](C)C(=O)N[C@@H](C)C(N)=O)NC(=O)[C@H](CC(C)C)NC(=O)[C@H](CCC(N)=O)NC(=O)[C@H](C)NC(=O)[C@H](Cc2c[nH]c3ccccc23)NC(=O)[C@H](Cc2ccc(O)cc2)NC(=O)[C@H](CCC(=O)O)NC1=O)[C@@H](C)O [compound 161] (Ac-ETF[R8]EYWAQL[S5]SAA-NH2; staple 4-11),1,−1,0,> 30,2,8,14,22,–
"CC(=O)N[C@@H](CC(C)C)C(=O)N[C@H](C(=O)N[C@@H](Cc1ccccc1)C(=O)N[C@]1(C)CCCCCCC=CCCC[C@@](C)(C(=O)N[C@@H](CO)C(=O)N[C@@H](CC(C)C)C(=O)N[C@@H](C)C(N)=O)NC(=O)[C@H](CC(C)C)NC(=O)[C@H](CCC(N)=O)NC(=O)[C@H](C)NC(=O)[C@H](Cc2c[nH]c3ccccc23)NC(=O)[C@H](Cc2ccc(O)cc2)NC(=O)[C@H](C)NC1=O)[C@@H](C)O (single isomer, unassigned) [compound 118]",4,2,4,< 5,1,2,18,27,–
"CC(=O)N[C@@H](C)C(=O)N[C@@H](C)C(=O)N[C@@H](CC(C)C)C(=O)N[C@H](C(=O)N[C@@H](Cc1ccccc1)C(=O)N[C@]1(C)CCCCCCC=CCCC[C@@](C)(C(=O)N[C@@H](CO)C(=O)N[C@@H](C)C(=O)N[C@@H](C)C(=O)N[C@@H](C)C(=O)N[C@H](C)C(N)=O)NC(=O)[C@H](CC2CCC2)NC(=O)[C@H](CCC(N)=O)NC(=O)[C@H](C)NC(=O)[C@H](Cc2c[nH]c3ccccc23)NC(=O)[C@H](Cc2ccc(O)cc2)NC(=O)[C@H](CCC(=O)O)NC1=O)[C@@H](C)O (single isomer, unassigned) [compound 358]",–,–,–,15 to 30,1,3,6,24,2
"CC(=O)N[C@@H](CC(C)C)C(=O)N[C@H](C(=O)N[C@@H](Cc1ccccc1)C(=O)N[C@]1(C)CCCCCCC=CCCC[C@@](C)(C(=O)N[C@@H](C)C(=O)N[C@H](C(=O)NCC(N)=O)C(C)C)NC(=O)[C@H](CC(C)C)NC(=O)[C@H](CCC(N)=O)NC(=O)[C@H](C)NC(=O)[C@H](Cc2c[nH]c3ccccc23)NC(=O)[C@H](Cc2ccc(O)cc2)NC(=O)[C@H](C)NC1=O)[C@@H](C)O (single isomer, unassigned) [compound 109]",–,–,–,< 5,–,4,16,25,–
CCCC[C@H](NC(=O)[C@H](C)NC(=O)[C@H](C)NC(=O)[C@]1(C)CCC/C=C/CCCCCC[C@@](C)(NC(=O)[C@H](Cc2ccccc2)NC(=O)[C@@H](NC(=O)[C@H](CC(C)C)NC(C)=O)[C@@H](C)O)C(=O)N[C@@H](C)C(=O)N[C@@H](Cc2ccc(O)cc2)C(=O)N[C@@](C)(Cc2c[nH]c3ccccc23)C(=O)N[C@@H](C)C(=O)N[C@@H](CCC(N)=O)C(=O)N[C@@H](CC(C)C)C(=O)N1)C(=O)N[C@@H](C)C(N)=O [compound 388],–,–,–,15 to 30,–,–,–,–,–

# Source: patent publication US20200369728A1, “PEPTIDOMIMETIC MACROCYCLES AND USES THEREOF” (Aileron Therapeutics, Inc., priority 2015, published 2020)
